Results taken from patent US10584114B2, “Inhibitors of RET” (BLUEPRINT MEDICINES CORPORATION, priority 2015, dated 2020).

What was measured:
wild type RET = wild type RET (Homo sapiens (Human), UniProt P07949); experiment: RET Wild Type Assay at KM (Caliper electrophoretic mobility shift); assay type: biochemical; conditions: 25 μM ATP, 25° C., 120 minutes
RET V804L = RET V804L (Homo sapiens (Human), UniProt P07949, V804L); experiment: RET V804L Gatekeeper Mutant Assay at KM (Caliper electrophoretic mobility shift); assay type: biochemical; conditions: 10 μM ATP, 25° C., 120 minutes
Chain of RET V804L (P07949 658-1114 V804L): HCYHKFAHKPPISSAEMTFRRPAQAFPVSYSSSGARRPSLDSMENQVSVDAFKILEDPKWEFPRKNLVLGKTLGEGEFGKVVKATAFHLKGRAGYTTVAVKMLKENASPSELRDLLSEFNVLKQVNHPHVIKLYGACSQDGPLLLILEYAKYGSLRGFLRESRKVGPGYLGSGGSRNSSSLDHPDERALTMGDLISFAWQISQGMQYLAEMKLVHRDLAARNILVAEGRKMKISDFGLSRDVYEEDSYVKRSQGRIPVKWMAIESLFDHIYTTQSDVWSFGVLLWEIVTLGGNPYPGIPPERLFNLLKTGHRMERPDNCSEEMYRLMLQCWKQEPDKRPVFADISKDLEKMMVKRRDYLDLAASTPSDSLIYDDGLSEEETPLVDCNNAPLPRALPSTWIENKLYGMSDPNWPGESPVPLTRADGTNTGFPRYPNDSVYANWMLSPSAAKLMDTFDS

Chain of wild type RET (P07949 658-1114): as the sequence (P07949 658-1114 V804L) above, with L147V counted along it

IC50 (wild type RET) [nM] | IC50 (RET V804L) [nM] | SMILES
> 100 | > 100 | Cc1cc(Nc2cc(C)[nH]n2)nc([C@H]2CC[C@@H](C(=O)NCc3ccc(-n4cccn4)nc3)CC2)n1 [Compound 100]
< 10 | < 10 | Cc1cc(Nc2cc(C)[nH]n2)nc([C@H]2CC[C@H](C(=O)NCc3ccc(-n4cccn4)nc3)CC2)n1 [Compound 101]
> 100 | > 100 | Cc1cc(Nc2cc(C)[nH]n2)nc([C@H]2CC[C@@H](C(=O)N[C@@H](C)c3ccc(-n4cccn4)nc3)CC2)n1 [Compound 102]
< 10 | < 10 | Cc1cc(Nc2cc(C)[nH]n2)nc([C@H]2CC[C@H](C(=O)N[C@@H](C)c3ccc(-n4cccn4)nc3)CC2)n1 [Compound 103]
> 100 | > 100 | Cc1cc(Nc2cc(C)[nH]n2)nc([C@@H]2CC[C@@H](C(=O)NCc3ccc(-n4cccn4)nc3)[C@@H](C)C2)n1 [Compound 104]
< 10 | 10 to 100 | Cc1cc(Nc2cc(C)[nH]n2)nc([C@H]2CC[C@H](C(=O)NCc3ccc(-n4nc(C)cc4C)nc3)CC2)n1 [Compound 106]
< 10 | < 10 | Cc1cc(Nc2cc(C)[nH]n2)nc([C@@]2(O)CC[C@H](C(=O)NCc3ccc(-n4cccn4)nc3)[C@H](C)C2)c1 [Compound 107]
< 10 | < 10 | Cc1cc(Nc2cc(C)[nH]n2)nc([C@H]2CC[C@H](C(=O)NCc3ccc(-n4cc(Cl)cn4)nc3)CC2)n1 [Compound 113]
< 10 | < 10 | Cc1cc(Nc2cc(C)[nH]n2)nc([C@]2(O)CC[C@@H](C(=O)NCc3ccc(-n4cccn4)nc3)C(C)(C)C2)c1 [Compound 114]
> 100 | 10 to 100 | Cc1cc(Nc2cc(C)[nH]n2)nc([C@@H]2CC[C@@H](C(=O)N[C@@H](C)c3ccc(-n4cc(F)cn4)nc3)[C@@H](C)C2)n1 [Compound 116]
> 100 | > 100 | Cc1cc(Nc2cc(C)[nH]n2)nc([C@]2(O)CC[C@H](C(=O)N[C@@H](C)c3ccc(-n4cc(F)cn4)nc3)CC2)c1 [Compound 119]
< 10 | < 10 | Cc1cc(Nc2cc(C)[nH]n2)nc([C@]2(O)CC[C@@H](C(=O)N[C@@H](C)c3ccc(-n4cc(F)cn4)nc3)CC2)c1 [Compound 120, (1s,4R)—N—((S)-1-(6-(4-fluoro-1H-pyrazol-1-yl)pyridin-3-yl)ethyl)-4-hydroxy-4-(4-methyl-6-(5-methyl-1H-pyrazol-3-ylamino)pyridin-2-yl)cyclohexanecarboxamide]
> 100 | 10 to 100 | Cc1cc(Nc2cc(C)[nH]n2)nc([C@@H]2CC[C@@H](C(=O)N[C@@H](C)c3ccc(-n4cc(F)cn4)nc3)C(C)(C)C2)n1 [Compound 124]
< 10 | < 10 | CO[C@]1(C(=O)N[C@@H](C)c2cnc(-n3cc(F)cn3)cn2)CC[C@H](c2nc(C)cc(Nc3cc(C)[nH]n3)n2)CC1 [Compound 131]
< 10 | < 10 | CCO[C@]1(C(=O)N[C@@H](C)c2ccc(-n3cc(F)cn3)nc2)CC[C@H](c2nc(C)cc(Nc3cc(C)[nH]n3)n2)CC1 [Compound 136]
> 100 | > 100 | CO[C@]1(C(=O)N[C@@H](C)c2ccc(-n3cc(F)cn3)nc2)CC[C@](O)(c2cc(C)cc(Nc3cc(C)[nH]n3)n2)CC1 [Compound 137]
< 10 | < 10 | CO[C@]1(C(=O)N[C@@H](C)c2ccc(-n3cc(F)cn3)nc2)CC[C@@](O)(c2cc(C)cc(Nc3cc(C)[nH]n3)n2)CC1 [Compound 138]
< 10 | < 10 | Cc1cc(Nc2cc(C)[nH]n2)nc(C2=CCC(C(=O)N[C@@H](C)c3ccc(-n4cc(F)cn4)nc3)CC2)n1 (stereo partly shown) [Compound 144]
< 10 | < 10 | Cc1cc(Nc2cc(C)[nH]n2)nc([C@]2(O)CC[C@@H](C(=O)N[C@@H](C)c3ccc(-n4cc(F)cn4)nc3)OC2)c1 [Compound 146]
< 10 | < 10 | CO[C@]1(C(=O)NCc2cnc(-n3cc(F)cn3)cn2)CC[C@H](c2nc(C)cc(Nc3cc(C)[nH]n3)n2)CC1 [Compound 150]
